System: subjects undergoing elective laparoscopic abdominal surgery under general anaesthesia
Experiment: Example 1: phase III, placebo-controlled clinical study of compound 1 injection for postoperative analgesia (morphine rescue; nausea and vomiting recorded)
Assay type: in vivo, patients
Description: This study was a multicentre, randomised, double-blind, placebo-controlled phase III clinical study conducted in China to evaluate the efficacy and safety of compound 1 injection for postoperative analgesia in subjects undergoing elective laparoscopic abdominal surgery under general anaesthesia. […] subjects undergoing elective laparoscopic abdominal surgery under general anaesthesia were enrolled and randomised to two groups: the compound 1 group (136 subjects) and the placebo group (135 subjects). All subjects received an intravenous injection of compound 1 injection or placebo injection within 5 min after the completion of the first NRS score assessment, and the end time of the first postoperative administration was recorded as 0 min. At 8 h and 16 h after the end of the first administration, within a time window of ±15 min, a single corresponding dose of the compound 1 injection or placebo injection was administered intravenously to the subjects.
Resting NRS score assessments were performed in subjects within 5 min before the first postoperative administration, and at 15 min ± 5 min, 30 min ± 5 min, 1 h ± 5 min, 2 h ± 15 min, 4 h ± 15 min, 8 h (within 30 min before the second postoperative administration), 12 h ± 30 min, 16 h (within 30 min before the last postoperative administration), 20 h ± 30 min, and 24 h ± 1 h after the first postoperative administration. The NRS score for resting pain refers to the NRS score assessed when the subject is at rest (e.g., sitting or lying still). If the subject was unconscious at a scheduled NRS assessment time point, the score was recorded as follows: if the previous NRS score was ≥ 2, the current NRS score was recorded as 2; if the previous NRS score was < 2, the current NRS score was recorded as the previous score. Meanwhile, it was documented that the subject was unconscious at the time of assessment.
A morphine injection was administered via intravenous injection for rescue treatment if the resting pain NRS score was ≥ 4 at any pain assessment time point after the first postoperative administration, or if the subject complained of pain at any time point and the resting pain NRS score was ≥ 4. It was recommended that the time from the subject's NRS assessment to actual administration of morphine injection be ≤ 30 min; an initial intravenous dose of 3 mg be administered, followed by additional doses as needed. It was also recommended that the interval between two rescue treatments be ≥ 2 h and that the interval between rescue medication and study drug administration be ≥ 1 h.
Prophylactic antiemetic treatment was prohibited during the study. After the first postoperative administration, the investigator administered antiemetic agents based on the occurrence of nausea and vomiting in the subject, and the dosage of the antiemetic agents was recorded. Tropisetron was the preferred antiemetic agent (an initial intravenous dose of 2.5 mg, followed by additional doses as needed, not to exceed 10 mg within 24 h). If tropisetron was insufficiently effective, other agents were used by the investigator in accordance with routine clinical practice.
Abdominal surgery, female sex, non-smoking status, and postoperative opioid use are known as risk factors leading to postoperation nausea and vomiting (PONV). Two studies of compound 1 injection for postoperative analgesia after abdominal surgery were completed. Morphine (Example 1) and flurbiprofen axetil (Example 2) were used as rescue analgesic agents in the two studies, respectively, and prophylactic antiemetic treatment was prohibited during the studies. The study results were summarised as follows.

[1] = Example 1, No morphine use (no rescue analgesia), N = 91
[2] = Example 1, No morphine use, listed as compound 1
[3] = Example 1, Overall, safety analysis set, N = 136
[4] = Example 1, Overall, safety analysis set, N = 136, listed as compound 1
[5] = within 0-12 h and 0-24 h after the first postoperative administration, compared with placebo
[6] = within 0-24 h after the first administration, compared with placebo

## CC(=O)N1CC2(CCN(C(=O)[C@@H](CCCCN)NC(=O)[C@@H](CC(C)C)NC(=O)[C@@H](Cc3ccccc3)NC(=O)[C@H](N)Cc3ccccc3)CC2)C1 [Compound 1, (2R)-N-[(1R)-1-(2-acetyl-2,7-diazaspiro[3.5]nonane-7-carbonyl)-5-amino-pentyl]-2-[[(2R)-2-[[(2R)-2-amino-3-phenyl-propionyl]amino]-3-phenylpropionyl]amino]-4-methyl-pentanamide]
Example 1
  overall safety and tolerability: good overall safety and tolerability
Example 1, No morphine use
  Change in incidence of nausea relative to placebo: 25.7% reduction
  Change in incidence of vomiting relative to placebo: 20.1% reduction
[1]
  Nausea (incidence): 16.5%
  Vomiting (incidence): 18.7%
[2]
  Change in incidence of nausea relative to placebo: 25.7 % reduction
  Change in incidence of vomiting relative to placebo: 20.1 % reduction
Example 1, Overall
  Change in incidence of nausea relative to placebo: 35.8% reduction
  Change in incidence of vomiting relative to placebo: 52.8% reduction
[3]
  Nausea (incidence): 17.6%
  Vomiting (incidence): 15.4%
[4]
  Nausea (incidence): 17.6%
  Vomiting (incidence): 15.4%
Compared with placebo
  PID at each time point: significantly lower than those in the placebo group
  SPID0-12 h after the first postoperative administration: significantly lower than those in the placebo group
  SPID0-24 h after the first postoperative administration: superior to that in the placebo group
  duration of analgesia: significantly longer than those in the placebo group
  incidences of adverse reactions: comparable to those in the placebo group
  incidences of adverse reactions (including nausea and vomiting): significantly lower than those in the placebo group
  incidences of the main TEAEs (including nausea and vomiting): significantly lower than those in the placebo group
  subject and investigator satisfaction scores for postoperative analgesia: significantly higher than those in the placebo group
  time to the first use of rescue analgesic agents: significantly longer than those in the placebo group
Summary of both Phase III studies (Example 1)
  effect on PONV in patients after abdominal surgery: preventive and/or alleviating effect on PONV
[5]
  mean cumulative dosage of rescue analgesic agents: significantly lower than those in the placebo group
  proportion of subjects with NRS scores ≤ 3: significantly higher than those in the placebo group
[6]
  mean cumulative dosage of antiemetic agents: significantly lower than those in the placebo group
  proportion of subjects using antiemetic agents: significantly lower than those in the placebo group
Within 0-24 h after the first postoperative administration, compared with placebo
  proportion of subjects using rescue analgesic agents: significantly lower than those in the placebo group
